PubChem BioAssay (NCI)
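Abbreviation: GI50, concentration required for 50% inhibition of growth. At the TGI there is no net growth.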

Assays:
Assay in all cases: DTP human tumour cell line panel, 384-well format
[1] = tested on: BT-549 breast
[2] = tested on: HCT-15 colon
[3] = tested on: MALME-3M melanoma
[4] = tested on: MDA-MB-231 breast
[5] = tested on: MDA-MB-468 breast
[6] = tested on: NCI-H322M lung
[7] = tested on: OVCAR-5 ovarian
[8] = tested on: SK-MEL-2 melanoma
[9] = tested on: SK-MEL-5 melanoma
[10] = tested on: SK-OV-3 ovarian
[11] = tested on: SNB-19 CNS
[12] = tested on: TK-10 renal
[13] = tested on: U251 glioblastoma

| SMILES | GI50 [1] [µM] | TGI [1] [µM] | GI50 [2] [µM] | TGI [2] [µM] | GI50 [3] [µM] | TGI [3] [µM] | GI50 [4] [µM] | TGI [4] [µM] | GI50 [5] [µM] | TGI [5] [µM] | GI50 [6] [µM] | TGI [6] [µM] | GI50 [7] [µM] | TGI [7] [µM] | GI50 [8] [µM] | TGI [8] [µM] | GI50 [9] [µM] | TGI [9] [µM] | GI50 [10] [µM] | TGI [10] [µM] | also measured |
| --- | --- | --- | --- | --- | --- | --- | --- | --- | --- | --- | --- | --- | --- | --- | --- | --- | --- | --- | --- | --- | --- |
| CC(C)n1c(=O)n(C)c2cnc3cc(F)c(-c4ccc(OCCCN5CCCCC5)nc4)cc3c21 | 9.56 | > 100 | 52.3 | > 100 | > 100 | > 100 | 36.3 | > 100 | 24.8 | > 100 | > 100 | > 100 | > 100 | > 100 | 35.2 | > 70 | > 38.4 | > 100 | > 62.5 | > 100 | GI50 [11]: > 95.5 µM; TGI [11]: > 100 µM; GI50 [12]: 51.7 µM; TGI [12]: > 100 µM; GI50 [13]: > 70.8 µM; TGI [13]: > 100 µM |
| CS(=O)(=O)c1ccc(Oc2cc(F)cc(C#N)c2)c2c1[C@H](O)C(F)(F)C2 | > 100 | > 100 | > 100 | > 100 | > 100 | > 100 | > 100 | > 100 | > 100 | > 100 | > 100 | > 100 | > 100 | > 100 | > 100 | > 100 | > 100 | > 100 | > 100 | > 100 | GI50 [11]: > 100 µM; TGI [11]: > 100 µM; GI50 [12]: > 100 µM; TGI [12]: > 100 µM; GI50 [13]: > 100 µM; TGI [13]: > 100 µM |
